How the values were obtained:
[1] = tested on: MDCK cells; conditions: minimal change in cell morphology after 48 h incubation
[2] = tested on: A/Guangzhou/GIRD/07/2009 (H1N1); experiment: microbe, parasite or virus in culture; type: cell-based; conditions: Influenza A virus, H1N1, MDCK, 48 h, read-out: Activity (EC50, μM)
[3] = tested on: influenza virus (A/PR/8/34)

Row | Compound | MCC (minimum cytotoxic concentration) [1] | EC50 [2] | inhibition of virus-induced aggregation of chicken erythrocytes [3]
1 | NC12CC3CC(CC(C3)C1)C2 [Amantadine, amantadine, reference compound] | >100 µM | – | –
2 | C[C@H]1[C@H](NCc2cncnc2)C[C@H]2C[C@@H]1C2(C)C [Compound 1] | >100 µM | > 50 µM | –
3 | C[C@H]1[C@H](NCc2cnccn2)C[C@H]2C[C@@H]1C2(C)C [Compound 2] | >100 µM | > 50 µM | –
4 | Cc1n[nH]cc1CN[C@@H]1C[C@H]2C[C@@H]([C@H]1C)C2(C)C [Compound 3] | >100 µM | > 50 µM | –
5 | C[C@H]1[C@H](NCc2ccoc2)C[C@H]2C[C@@H]1C2(C)C [Compound 4] | >100 µM | – | –
6 | C[C@H]1[C@H](NCc2ccco2)C[C@H]2C[C@@H]1C2(C)C [Compound 5] | 50 µM | > 50 µM | –
7 | C[C@H]1[C@H](NCc2ccsc2)C[C@H]2C[C@@H]1C2(C)C [Compound 6] | 50 µM | – | –
8 | C[C@H]1[C@H](NCc2cccs2)C[C@H]2C[C@@H]1C2(C)C [Compound 7] | 25 µM | – | –
9 | C[C@H]1[C@H](NCc2nccs2)C[C@H]2C[C@@H]1C2(C)C [Compound 8] | >100 µM | > 50 µM | –
10 | C[C@H]1[C@H](NCc2cncs2)C[C@H]2C[C@@H]1C2(C)C [Compound 9] | >100 µM | > 50 µM | –
11 | Cc1csc(CN[C@@H]2C[C@H]3C[C@@H]([C@H]2C)C3(C)C)n1 [Compound 10] | >100 µM | – | –
12 | Cc1ccsc1CN[C@@H]1C[C@H]2C[C@@H]([C@H]1C)C2(C)C [Compound 11] | 10 µM | > 0.78 µM | –
13 | CCc1ccsc1CN[C@@H]1C[C@H]2C[C@@H]([C@H]1C)C2(C)C [Compound 12] | 25 µM | > 0.78 µM | –
14 | C[C@H]1[C@H](NCc2sccc2Br)C[C@H]2C[C@@H]1C2(C)C [Compound 13] | 50 µM | > 0.78 µM | –
15 | CCCc1ccsc1CN[C@@H]1C[C@H]2C[C@@H]([C@H]1C)C2(C)C [Compound 14] | 50 µM | > 0.78 µM | –
16 | CCCCc1ccsc1CN[C@@H]1C[C@H]2C[C@@H]([C@H]1C)C2(C)C [Compound 15] | 25 µM | – | –
17 | CCOc1ccsc1CN[C@@H]1C[C@H]2C[C@@H]([C@H]1C)C2(C)C [Compound 16] | 50 µM | > 0.78 µM | –
18 | C=Cc1ccsc1CN[C@@H]1C[C@H]2C[C@@H]([C@H]1C)C2(C)C [Compound 17] | 50 µM | – | –
19 | C[C@H]1[C@H](NCc2sccc2C2CC2)C[C@H]2C[C@@H]1C2(C)C [Compound 18] | – | – | did not inhibit
20 | C[C@H]1[C@H](NCc2sccc2C2CCCC2)C[C@H]2C[C@@H]1C2(C)C [Compound 19] | 12.5 µM | – | –
21 | C[C@H]1[C@H](NCc2sccc2C2CCCCC2)C[C@H]2C[C@@H]1C2(C)C [Compound 20] | 1.56 µM | > 0.78 µM | –

Row | Compound | MCC (minimum cytotoxic concentration) [1] | EC50 [2] | inhibition of virus-induced aggregation of chicken erythrocytes [3]
22 | C[C@H]1[C@H](NCc2sccc2-c2ccsc2)C[C@H]2C[C@@H]1C2(C)C [Compound 21] | 12.5 µM | > 0.78 µM | –
23 | C[C@H]1[C@H](NCc2sccc2-c2ccccc2)C[C@H]2C[C@@H]1C2(C)C [Compound 22] | 12.5 µM | > 0.78 µM | –
24 | C[C@H]1[C@H](NCc2cc(Br)cs2)C[C@H]2C[C@@H]1C2(C)C [Compound 23] | 6.25 µM | – | –
25 | Cc1csc(CN[C@@H]2C[C@H]3C[C@@H]([C@H]2C)C3(C)C)c1 [Compound 24] | 12.5 µM | – | –
26 | CCc1csc(CN[C@@H]2C[C@H]3C[C@@H]([C@H]2C)C3(C)C)c1 [Compound 25] | 25 µM | > 0.78 µM | –
27 | CCCc1csc(CN[C@@H]2C[C@H]3C[C@@H]([C@H]2C)C3(C)C)c1 [Compound 26] | 12.5 µM | > 0.78 µM | –
28 | CCCCc1csc(CN[C@@H]2C[C@H]3C[C@@H]([C@H]2C)C3(C)C)c1 [Compound 27] | 12.5 µM | – | –
29 | C=Cc1csc(CN[C@@H]2C[C@H]3C[C@@H]([C@H]2C)C3(C)C)c1 [Compound 28] | 6.25 µM | > 0.78 µM | –
30 | C=C(C)c1csc(CN[C@@H]2C[C@H]3C[C@@H]([C@H]2C)C3(C)C)c1 [Compound 29] | 25 µM | > 0.78 µM | –
31 | C[C@H]1[C@H](NCc2cc(C3CC3)cs2)C[C@H]2C[C@@H]1C2(C)C [Compound 30] | 25 µM | – | –
32 | C[C@H]1[C@H](NCc2cc(C3CCCC3)cs2)C[C@H]2C[C@@H]1C2(C)C [Compound 31] | 1.56 µM | > 0.78 µM | –
33 | C[C@H]1[C@H](NCc2cc(C3CCCCC3)cs2)C[C@H]2C[C@@H]1C2(C)C [Compound 32] | 0.78 µM | > 0.78 µM | –
34 | C[C@H]1[C@H](NCc2cc(-c3ccsc3)cs2)C[C@H]2C[C@@H]1C2(C)C [Compound 33] | 25 µM | > 0.78 µM | –
35 | C[C@H]1[C@H](NCc2cc(-c3ccccc3)cs2)C[C@H]2C[C@@H]1C2(C)C [Compound 34] | 5 µM | > 0.78 µM | –
36 | C[C@H]1[C@H](NCc2ccc(Cl)s2)C[C@H]2C[C@@H]1C2(C)C [Compound 35] | 25 µM | > 0.78 µM | –
37 | Cc1ccc(CN[C@@H]2C[C@H]3C[C@@H]([C@H]2C)C3(C)C)s1 [Compound 36] | 0.78 µM | > 0.78 µM | –
38 | C[C@H]1[C@H](NCc2ccc(Br)s2)C[C@H]2C[C@@H]1C2(C)C [Compound 37] | 43 µM | > 0.78 µM | –
39 | CCc1ccc(CN[C@@H]2C[C@H]3C[C@@H]([C@H]2C)C3(C)C)s1 [Compound 38] | 1.56 µM | > 0.78 µM | –
40 | C[C@H]1[C@H](NCc2ccc(C(C)(C)C)s2)C[C@H]2C[C@@H]1C2(C)C [Compound 39] | 0.78 µM | > 0.78 µM | –
41 | CSc1ccc(CN[C@@H]2C[C@H]3C[C@@H]([C@H]2C)C3(C)C)s1 [Compound 40] | 25 µM | > 0.78 µM | –
42 | C[C@H]1[C@H](NCc2ccc(-c3ccc(Br)s3)s2)C[C@H]2C[C@@H]1C2(C)C [Compound 41] | 0.78 µM | > 0.78 µM | –
